Assay [1] concerns the target Caf1 (Homo sapiens, UniProt Q9UIV1). Kind of assay: Fluorescence-based biochemical assay of Caf1 ribonuclease activity.
Protocol: Following LC–MS and solubility analysis, five compounds were evaluated for their ability to inhibit Caf1 activity using a fluorescence-based biochemical assay (Fig. 1B).[22]
Reactions contained no enzyme (control), complete reactions (enzyme) or complete reactions in the presence of the indicated compound. […] Error bars represent the standard deviation.
For assay [2], the target named is T1, PARN (Homo sapiens, UniProt O95453).
T1 sequence (O95453 1-639): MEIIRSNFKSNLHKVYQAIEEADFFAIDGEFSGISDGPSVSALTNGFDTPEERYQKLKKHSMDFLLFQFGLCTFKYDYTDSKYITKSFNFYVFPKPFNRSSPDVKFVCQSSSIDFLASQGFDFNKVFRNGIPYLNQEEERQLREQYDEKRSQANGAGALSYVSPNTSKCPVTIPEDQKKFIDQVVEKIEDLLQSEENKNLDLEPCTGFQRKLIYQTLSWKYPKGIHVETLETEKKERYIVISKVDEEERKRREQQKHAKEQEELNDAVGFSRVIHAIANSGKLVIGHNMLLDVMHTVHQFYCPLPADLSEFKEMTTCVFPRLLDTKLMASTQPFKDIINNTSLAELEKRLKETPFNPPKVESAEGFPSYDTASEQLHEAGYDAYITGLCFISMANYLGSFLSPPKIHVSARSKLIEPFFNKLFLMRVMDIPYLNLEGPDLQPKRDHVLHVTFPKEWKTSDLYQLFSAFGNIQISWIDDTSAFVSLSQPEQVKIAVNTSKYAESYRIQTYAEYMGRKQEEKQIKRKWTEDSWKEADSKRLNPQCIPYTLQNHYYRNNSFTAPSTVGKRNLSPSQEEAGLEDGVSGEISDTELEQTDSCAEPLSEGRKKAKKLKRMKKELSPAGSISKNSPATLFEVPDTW
Kind of assay: Fluorescence-based biochemical assay of PARN ribonuclease activity. The conditions noted are these: for IC50: fluorescence-based biochemical assay, ± standard error of the mean (n = 3); for inhibition of PARN ribonuclease activity (in words): Fig. 3, compounds used at 10 μM (5h–k). The protocol: The selectivity of the compounds was determined by comparing their activities against Caf1 and two related deadenylase enzymes: the PARN ribonuclease, which has a conserved nuclease domain similar to that of Caf1, and Ccr4, whose biological function is related to Caf1, but which contains a dissimilar EEP-type nuclease domain.[22]
Error bars represent the standard deviation.

[3] abbreviates: read-out: IC50 (Caf1), fluorescence-based biochemical assay, ± standard error of the mean (n = 3).

Where two headings read alike, the source gives them in different places.

Caf1, sequence (Q9UIV1 whole entry): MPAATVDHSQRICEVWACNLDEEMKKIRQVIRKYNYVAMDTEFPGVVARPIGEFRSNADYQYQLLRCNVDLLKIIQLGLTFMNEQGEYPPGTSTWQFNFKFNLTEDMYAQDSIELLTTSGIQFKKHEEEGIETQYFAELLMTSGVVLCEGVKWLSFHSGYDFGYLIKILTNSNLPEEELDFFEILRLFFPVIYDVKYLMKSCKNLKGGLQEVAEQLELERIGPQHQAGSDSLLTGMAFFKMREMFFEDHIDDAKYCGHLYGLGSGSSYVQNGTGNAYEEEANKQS

As for `CN(C)CCCn1c(=O)n(O)c(=O)c2c1ncn2CCc1ccccc1` [Compound 8j], in assay [1], the “increased activity against Caf1 compared to compound 5a” value is given as above 10 fold. The “potency against Caf1 relative to all previously identified compounds” value in assay [1] (compared with the inhibitors of ref 22) is above 20 fold. Besides, the IC50 came to 0.59 ± 0.11 µM in assay [1] (setting [3]) and 23.9 ± 3.7 µM in assay [2]. Further, the “activity versus PARN (in words)” value in assay [2] (Table 2, Fig. 3, 3 μM) is on record as “displayed reduced activity versus PARN”. Turning to `O=c1[nH]c2ncn(CCc3ccccn3)c2c(=O)n1O` [Compound 5k], in assay [1] (setting [3]), the IC50 amounted to 4 ± 1.1 µM. Further, in assay [2], the “inhibition of PARN ribonuclease activity (in words)” value (shortened to “inhibition”) was “also inhibited the related deadenylase PARN”. Consider `O=c1[nH]c2cnn(-c3ccccc3)c2c(=O)n1O` [NSC-104148], for which the IC50 in assay [1] (setting [3]) turned out to be 38.6 ± 2.79 µM. Take `O=c1[nH]c2ncn(Cc3ccccc3)c2c(=O)n1O` [Compound 5a]: the IC50 in assay [1] turned out to be 22.8 ± 0.1 µM; in assay [1] (setting [3]) it was 10.4 ± 0.4 µM; in assay [2] it was 84.1 ± 6.7 µM. With `O=c1[nH]c2cccnc2c(=O)n1O` [NSC-193557], the IC50 in assay [1] (setting [3]) amounted to 525 ± 13.9 µM. For the compound `O=c1[nH]c2ncn(CCc3cccs3)c2c(=O)n1O` [Compound 5h], in assay [1] (setting [3]), the IC50 was determined as 3.6 ± 1.1 µM. For the same compound, the “inhibition” value in assay [2] is “also inhibited the related deadenylase PARN”.

`CCCCOCCCn1cnc2[nH]c(=O)n(O)c(=O)c21` [Compound 5g]: in assay [1] (setting [3]), the IC50 is 20.6 ± 5.8 µM. Still for that read-out and setting: in the case of `O=c1c2c(ncn2CCc2ccccc2)n(Cc2ccccc2)c(=O)n1O` [Compound 8i] it was 14.5 ± 0.9 µM. `O=c1[nH]c2ncn(Cc3ccncc3)c2c(=O)n1O` [Compound 5e] had an IC50 in assay [2] of 245 ± 20 µM. Take `O=c1c2c(ncn2CCc2ccccc2)n(CCN2CCOCC2)c(=O)n1O` [Compound 8k]: in assay [1] (setting [3]), the IC50 came to 8.7 ± 0.3 µM. The same measure, in the same setting: for `Cn1c(=O)n(O)c(=O)c2c1ncn2CCc1ccccc1` [Compound 8a] the value was 9.3 ± 1.7 µM. With `O=c1[nH]c2ncn(CCc3ccccc3)c2c(=O)n1O` [Compound 5j], the “inhibition” value in assay [2] is listed as “also inhibited the related deadenylase PARN”.

Consider `O=c1[nH]c2ncn(Cc3ccccn3)c2c(=O)n1O` [Compound 5c], for which the IC50 in assay [1] (setting [3]) worked out at 10.6 ± 2.7 µM; in assay [2] it was 119 ± 25 µM. `O=c1[nH]c2ncn(CCCc3ccccc3)c2c(=O)n1O` [Compound 5f]: the IC50 in assay [1] (setting [3]) turned out to be 13.3 ± 2.3 µM. Turning to `O=c1[nH]c2ncsc2c(=O)n1O` [NSC-116567], in assay [1] (setting [3]), the IC50 was found to be 28.7 ± 3.8 µM.

For `O=c1[nH]c2ncn(Cc3cccnc3)c2c(=O)n1O` [Compound 5d], the IC50 in assay [1] (setting [3]) is 6.6 ± 0.7 µM; in assay [2], 125 ± 32 µM.

As usually defined, the IC50 is the concentration at which inhibition is half-maximal.
